The values below come from US20050026899A1, “Metabolite” (priority 2003, published 2005).

Holding throughout (set-up): species or system Mice
For one assay, the target named is T1, dopamine D2 receptor (Mus musculus, UniProt P61168).
T1 construct: serotonin (5-HT2) receptors relative to dopamine (D2) receptors in the brain; from tissue; host or cells: brain (rodent)
As to the kind of experiment: binding affinity for dopamine D2 receptor. From the text: (§1) An assessment of dopamine antagonism was made in rodent models. The methods and procedures used can be found in J. Med. Chem., 44 (3), 372-389, 2001 and are incorporated herein by reference. […] It is this combination of serotonin and dopamine receptor antagonism, with higher relative 5-HT2 to D2 receptor affinity that indicates the compound of Formula I as a potent atypical antipsychotic. J. Goldstein, Quetiapine Fumarate (Seroquel): a new atypical antipsychotic, 35(3) Drugs of Today 193-210 (1999). […] Low potency at the D2 receptor is considered advantageous since it a characteristic shared with Clozapine.

Another assay deals with T2, dopamine D1 receptor (Mus musculus, UniProt Q61616).
T2 construct: from tissue
As to the kind of experiment: binding affinity for dopamine D1 receptor. As to conditions: tested as the dihydrochloride salt; read-out: binding affinity for dopamine D1 receptor (K1).
Source text: as §1

For assay [1], the target named is T3, brain serotonin 5-HT2 receptor (Mus musculus, UniProt P35363).
T3 construct: from tissue; host or cells: brain (rodent)
As to the kind of experiment: binding affinity for brain serotonin 5-HT2 receptor.
Source text: as §1

The structures appear in SMILES notation.

T3 sequence (P35363 whole entry): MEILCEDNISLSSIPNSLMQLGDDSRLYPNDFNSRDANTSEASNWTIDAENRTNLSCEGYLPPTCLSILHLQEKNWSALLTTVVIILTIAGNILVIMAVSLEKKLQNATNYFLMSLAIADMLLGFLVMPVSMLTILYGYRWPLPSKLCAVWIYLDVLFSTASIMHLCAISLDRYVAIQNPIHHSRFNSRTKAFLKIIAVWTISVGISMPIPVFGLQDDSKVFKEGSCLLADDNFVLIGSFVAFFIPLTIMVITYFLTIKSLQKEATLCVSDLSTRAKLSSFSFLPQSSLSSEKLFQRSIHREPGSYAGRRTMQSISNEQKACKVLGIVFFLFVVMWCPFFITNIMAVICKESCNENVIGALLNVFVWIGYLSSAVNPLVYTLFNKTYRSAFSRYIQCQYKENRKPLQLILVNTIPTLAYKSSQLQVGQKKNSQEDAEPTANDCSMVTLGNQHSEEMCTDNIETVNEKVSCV
T1 sequence (P61168 whole entry): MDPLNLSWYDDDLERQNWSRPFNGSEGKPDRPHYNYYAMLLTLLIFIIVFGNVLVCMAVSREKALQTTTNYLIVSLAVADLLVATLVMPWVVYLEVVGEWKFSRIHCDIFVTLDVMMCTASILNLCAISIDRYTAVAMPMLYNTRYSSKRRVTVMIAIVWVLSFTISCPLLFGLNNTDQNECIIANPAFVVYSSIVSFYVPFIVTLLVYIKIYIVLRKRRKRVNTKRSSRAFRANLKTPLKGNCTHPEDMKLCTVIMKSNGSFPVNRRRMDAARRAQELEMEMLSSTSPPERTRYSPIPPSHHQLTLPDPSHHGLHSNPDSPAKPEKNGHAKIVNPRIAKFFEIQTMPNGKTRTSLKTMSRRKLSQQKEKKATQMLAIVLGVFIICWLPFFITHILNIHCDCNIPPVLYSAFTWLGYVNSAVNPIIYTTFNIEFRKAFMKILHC
T2 sequence (Q61616 whole entry): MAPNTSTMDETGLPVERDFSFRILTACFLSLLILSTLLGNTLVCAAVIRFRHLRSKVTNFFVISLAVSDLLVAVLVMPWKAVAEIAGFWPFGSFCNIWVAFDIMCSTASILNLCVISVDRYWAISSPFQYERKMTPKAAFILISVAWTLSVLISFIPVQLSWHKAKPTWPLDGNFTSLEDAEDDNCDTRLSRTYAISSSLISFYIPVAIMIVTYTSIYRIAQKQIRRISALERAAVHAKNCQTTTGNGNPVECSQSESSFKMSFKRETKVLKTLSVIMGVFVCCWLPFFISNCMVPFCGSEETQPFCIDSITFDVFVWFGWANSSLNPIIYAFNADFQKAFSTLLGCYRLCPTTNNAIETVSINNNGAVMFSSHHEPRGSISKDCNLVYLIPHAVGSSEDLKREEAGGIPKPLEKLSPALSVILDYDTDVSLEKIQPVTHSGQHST

Regarding `Oc1ccc2c(c1)Sc1ccccc1C(N1CCNCC1)=N2` [Formula I, 11-piperazin-1-yldibenzo[b,f][1,4]thiazepin-7-ol], the “affinity for D2 (in words)” value at dopamine D2 receptor was “moderate affinity”. Moreover, the Ki on dopamine D2 receptor (tested as the dihydrochloride salt, read-out: binding affinity for dopamine D2 receptor (K1)) is 35 nM; at dopamine D1 receptor, 288 nM; in assay [1] (tested as the dihydrochloride salt, brain receptor, read-out: binding affinity for brain serotonin 5-HT2 receptor (K1)), 6.5 nM. In addition, the “affinity for serotonin (5-HT2) receptors relative to dopamine (D2) receptors in the brain” value in assay [1] (as the dihydrochloride salt, 5-HT2 versus D2) is “higher affinity”.
